The values below come from patent US20220127297A1, “Novel Antibacterial 3"-Derivatives Of 4,6-Disubstituted 2,5-Dideoxystreptamine Aminoglycoside Antibiotics” (AGILeBiotics B.V., priority 2018, published 2022).

Converted amounts (≈) assume the structure as drawn. Like-named read-outs stand apart in the source and are kept apart here.

Series [1] can be described thus: Maximum tolerated dose (MTD) / acute toxicity study, IV. Type of series: in vivo. The procedure: 4.4 Maximum Tolerated Dose (MTD) Study in Male CD (Sprague Dawley) Rats.
The study was performed in an AAALAC I—approved Facility. The standard study plan relating to this study was reviewed by the Ethical Committee (CARE-Zagreb) as required by International Laws/Regulations and Croatian Low on Animal Welfare (“The Animal Protection Act”, Official Gazette, NN 37/13) and Animal Welfare Officer.
In vivo studies were performed by Fidelta (Zagreb, Croatia) and all rats (Sprague Dawley) were obtained from Charles River Laboratories (Italy). Three compounds, i.e. ABX5006, ABX5020 and ABX5039 were tested to determine the MTD of the test articles in male CD (Sprague Dawley) rats following a one-time dose (IV).
MTD study: Pathogen-free male CD (Sprague Dawley) rats (3 rats per dosing group) weighing 225-260 g were used. Five different dosing groups (50 mg/kg, 75 mg/kg, 100 mg/kg, 150 mg/kg and 200 mg/kg) were used and the test article was administered intravenous over 15 min (slow injection, 5 mL/kg). […] Clinical signs, body weight, food consumption and mortality was recorded during the in-life phase of the study. All animals surviving to the end of the 4 day monitoring period were euthanized on day 4. Terminal studies included gross necropsy and organ weight recording of all animals.
Supplies/Chemicals. Sterile, single used needles (25 G Microlance, REF300400, Becton Dickinson); 2 mL syringes (REF300185, Becton Dickinson); Phosphate buffered saline (P3813, Sigma Aldrich); isoflurane anesthesia (Abbott, Netherlands)
Anesthesia. Animals were deeply anaesthetized using isoflurane and subsequently exsangunated for full post mortem examination.

Series [2] deals with clinical isolates of multidrug-resistant Klebsiella pneumoniae (and ATCC43816). Put plainly: MIC determination at Fidelta, clinical isolates. The series is classed as cell-based. From the text:
3.4.2 MIC Determination at Fidelta (Croatia)
Tested reference compounds. Amikacin sulfate (Cat. No. 01693, Chem-Impex), Gentamicin sulfate (Cat. No. G4918, Sigma Aldrich), Ceftazidime Pentahydrate (Cat. No. 1098130, USP), Meropenem (Cat. No. 1392454, USP), Tobramycin (Cat. No. 1667508, USP).
Microbial strains. Klebsiella pneumoniae KP-1919 (abdomen), Klebsiella pneumoniae KP-1935 (urine), Klebsiella pneumoniae KP-1936 (abscess), Klebsiella pneumoniae KP-1937 (blood), Klebsiella pneumoniae KP-1942 (urine), Klebsiella pneumoniae KP-1944 (blood), Klebsiella pneumoniae KP-2027 (tracheal aspirate), Klebsiella pneumoniae KP-2029 (urine), Klebsiella pneumoniae KP-2030 (trachea), Klebsiella pneumoniae KP-2031 (skin), Klebsiella pneumoniae KP-2032 (urine), Klebsiella pneumoniae KP-2033 (urine), Klebsiella pneumoniae KP-2034 (urine), Klebsiella pneumoniae KP-2035 (urine), Klebsiella pneumoniae KP-2036 (urine), Klebsiella pneumoniae KP-2037 (urine), Klebsiella pneumoniae ATCC 43816, Pseudomonas aeruginosa PA-1948 (wound), Pseudomonas aeruginosa PA-1949 (urine), Pseudomonas aeruginosa PA-1950 (sputum), Pseudomonas aeruginosa PA-1952 (wound), Pseudomonas aeruginosa PA-1953 (urine), Pseudomonas aeruginosa PA-1954 (sputum), Pseudomonas aeruginosa PA-1967 (blood), Pseudomonas aeruginosa ATCC27853, Acinetobacter baumannii AB-1931 (urine), Acinetobacter baumannii AB-1932 (urine), Acinetobacter baumannii AB-2017 (bronchial aspirate), Acinetobacter baumannii AB-2018 (skin), Acinetobacter baumannii AB-2019 (bronchial aspirate), Acinetobacter baumannii AB-1964 (blood), Acinetobacter baumannii AB-2025 (skin), Acinetobacter baumannii AB-2026 (skin), Acinetobacter baumannii ATCC17978, methicillin-resistant Staphylococcus aureus MRSA-1995 (liquor), methicillin-resistant Staphylococcus aureus MRSA-1998 (wound), methicillin-resistant Staphylococcus aureus MRSA-1999 (skin), methicillin-resistant Staphylococcus aureus MRSA-2003 (wound), vancomycin-resistant Enterococcus faecium VRE-2005 (urine), vancomycin-resistant Enterococcus faecium VRE-2006 (urine), vancomycin-resistant Enterococcus faecium VRE-2007 (urine), vancomycin-resistant Enterococcus faecium VRE-2008 (urine), vancomycin-resistant Enterococcus faecium VRE-2009 (urine), vancomycin-resistant Enterococcus faecium VRE-2010 (urine), vancomycin-resistant Enterococcus faecium VRE-2011 (rectum), vancomycin-resistant Enterococcus faecium VRE-2012 (rectum), vancomycin-resistant Enterococcus faecium VRE-2013 (rectum).
Culture media and equipment. BBL™ Mueller Hinton Broth (REF 275730, Lot. 7009699, Becton Dickinson); Mueller Hinton Agar 2 (Ref. No. 97580-500G-F, Lot. No. BCBV4646, Sigma); Cellstar, 96-well plates, U-bottom (Cat. No. 650180, Lot. No. E14123EB, Greiner Bio-one); 96-well deep well plate, 1 mL (Cat. No. 278606, Nunc); Incubator (Binder); Laminar flow (Thermo Scientific); BioPhotometer (Eppendorf); DEN-1B (McFarland Densitometer, Biosan); McFarland standards (polymer microparticle suspension, Biosan).
Compound preparation. For testing, 5 mg/mL DMSO solutions of the test compounds and reference antibiotics were used. Out of these DMSO solutions, 43.5 μL was transferred to 1656.5 μL of MH media in a deep well plate. Out of these working solutions 100 μL was transferred to wells in the third column of 96-well plates. Plates are previously filled with 50 μL of MH media in all wells except for the wells in the third column. After compound and antibiotic addition, 50 μL was transferred from the third to the fourth column, then from the fourth to the fifth and so on. In this manner, the compounds and antibiotics were plated in 96-well plate in serial two-fold dilutions giving a final concentration range of 64-0.125 μg/mL.
Inoculum preparation. Designations used for clinical isolates were from Fidelta strain collection bank. Microorganisms used were all revived from skim milk storage at −70° C. by plating them on MH agar plates.

Setting [3] is: Klebsiella pneumoniae, ATCC43816, KP-1919, Abdomen/VIM, ESBL, read-out: MIC 90.
Setting [4] is: Klebsiella pneumoniae, ATCC43816, KP-1935, Urine/ESBL, NDM, read-out: MIC 90.
Setting [5] is: Klebsiella pneumoniae, ATCC43816, KP-1936, Abscess/NDM, read-out: MIC 90.
The mark [6] stands for this setting: Klebsiella pneumoniae, ATCC43816, KP-1937, Blood/VIM, ESBL, read-out: MIC 90.
[7] abbreviates: Klebsiella pneumoniae, ATCC43816, KP-1942, Urine (catheter)/VIM, read-out: MIC 90.
Setting [8] is: Klebsiella pneumoniae, ATCC43816, KP-1944, Blood/NDM, read-out: MIC 90.
[9] abbreviates: Klebsiella pneumoniae, ATCC43816, KP-2027, Tracheal aspirate/ESBL, OXA-48, ColR, read-out: MIC 90.

Regarding `N=C(N)NC1C(O)[C@@H](CO)OC(OC2C(F)[C@H](O[C@H]3OC(CN)[C@@H](O)CC3N)C(N)C[C@H]2NC(=O)[C@@H](O)CCN)[C@@H]1O` (stereo partly shown) [ABX5006, Tobra-AHB-F-Gua], in series [1] (male, CD (Sprague Dawley), rat, in vivo, iv), the MTD (in general, the highest dose tested that stayed within the study's limit of toxicity) at 4 days amounted to 150 mg/kg. For the same compound, the 50% lethal dose (LD50) (in general, the dose at which mortality reaches 50%) at 4 days in series [1] (male, CD (Sprague Dawley), rat, in vivo, iv, rats, one-time IV dose over 15 min) is > 200 mg/kg. Also, the LD50 in series [1] (rats, one-time IV dose over 15 min) is listed as >200 mg/kg. Moreover, the “MIC90” value in series [2] (K. pneumoniae ATCC43816 strain) came out at 0.25 µg/mL (≈ 0.408 µM); in series [2] (setting [3]) it was 0.5 µg/mL (≈ 0.816 µM); in series [2] (setting [4]), 0.5 µg/mL (≈ 0.816 µM); in series [2] (setting [5]), 0.5 µg/mL (≈ 0.816 µM); in series [2] (setting [6]), 2 µg/mL (≈ 3.26 µM); in series [2] (setting [7]) it was 0.25 µg/mL (≈ 0.408 µM). The MIC90 stood at 1 µg/mL (≈ 1.63 µM) in series [2] (setting [8]); 0.5 µg/mL (≈ 0.816 µM) in series [2] (setting [9]); 0.25 µg/mL (≈ 0.408 µM) in series [2] (Klebsiella pneumoniae, ATCC43816, KP-2029, Urine/ESBL, OXA-48, read-out: MIC 90); 0.5 µg/mL (≈ 0.816 µM) in series [2] (Klebsiella pneumoniae, ATCC43816, KP-2030, Trachea/ESBL, OXA-48, read-out: MIC 90); 0.5 µg/mL (≈ 0.816 µM) in series [2] (Klebsiella pneumoniae, ATCC43816, KP-2031, Skin/ESBL, OXA-48, read-out: MIC 90); 0.25 µg/mL (≈ 0.408 µM) in series [2] (Klebsiella pneumoniae, ATCC43816, KP-2032, Urine/ESBL, OXA-48, read-out: MIC 90). For the same compound, the MIC90 is 0.25 µg/mL (≈ 0.408 µM) in series [2] (Klebsiella pneumoniae, ATCC43816, KP-2033, Urine/OXA-A8, read-out: MIC 90); 0.5 µg/mL (≈ 0.816 µM) in series [2] (Klebsiella pneumoniae, ATCC43816, KP-2034, Urine/ESBL, OXA-48, read-out: MIC 90); 0.5 µg/mL (≈ 0.816 µM) in series [2] (Klebsiella pneumoniae, ATCC43816, KP-2035, Urine/ESBL, OXA-48, read-out: MIC 90); 0.25 µg/mL (≈ 0.408 µM) in series [2] (Klebsiella pneumoniae, ATCC43816, KP-2036, Urine/ESBL, read-out: MIC 90); 0.5 µg/mL (≈ 0.816 µM) in series [2] (Klebsiella pneumoniae, ATCC43816, KP-2037, Urine/ESBL, OXA-48, read-out: MIC 90).
For `N=C(N)NC1[C@@H](O)C(OC2[C@@H](F)[C@H](O[C@H]3OC(CN)[C@@H](O)[C@H](O)C3N)C(N)C[C@H]2NC(=O)[C@@H](O)CCN)O[C@H](CO)[C@H]1O` (stereo partly shown) [ABX4006, KanaB-AHB-F-Gua], the MIC90 in series [2] (setting [3]) was 1 µg/mL (≈ 1.59 µM); in series [2] (setting [4]), 0.5 µg/mL (≈ 0.795 µM); in series [2] (setting [5]), 0.5 µg/mL (≈ 0.795 µM); in series [2] (setting [6]), 4 µg/mL (≈ 6.36 µM); in series [2] (setting [7]), 0.25 µg/mL (≈ 0.398 µM); in series [2] (setting [8]), 1 µg/mL (≈ 1.59 µM). The MIC90 in series [2] (setting [9]) was 0.5 µg/mL (≈ 0.795 µM).
For the compound `NCC[C@H](O)C(=O)N[C@@H]1C[C@H](N)[C@@H](O[C@H]2O[C@H](CN)[C@@H](O)[C@H](O)[C@H]2O)[C@H](O)[C@H]1O[C@H]1O[C@H](CO)[C@@H](O)[C@H](N)[C@H]1O` [Amikacin, amikacin, reference compound], the MIC90 was 0.5 µg/mL (≈ 0.854 µM) in series [2] (Klebsiella pneumoniae, ATCC43816); 8 µg/mL (≈ 13.7 µM) in series [2] (Klebsiella pneumoniae, ATCC43816, KP-1919, Abdomen/VIM, ESBL); 8 µg/mL (≈ 13.7 µM) in series [2] (Klebsiella pneumoniae, ATCC43816, KP-1935, Urine/ESBL, NDM); 4 µg/mL (≈ 6.83 µM) in series [2] (Klebsiella pneumoniae, ATCC43816, KP-1936, Abscess/NDM); 32 µg/mL (≈ 54.6 µM) in series [2] (Klebsiella pneumoniae, ATCC43816, KP-1937, Blood/VIM, ESBL); 2 µg/mL (≈ 3.42 µM) in series [2] (Klebsiella pneumoniae, ATCC43816, KP-1942, Urine (catheter)/VIM). Also, the MIC90 in series [2] (Klebsiella pneumoniae, ATCC43816, KP-1944, Blood/NDM) stood at 8 µg/mL (≈ 13.7 µM); in series [2] (Klebsiella pneumoniae, ATCC43816, KP-2027, Tracheal aspirate/ESBL, OXA-48, ColR) it was 4 µg/mL (≈ 6.83 µM); in series [2] (Klebsiella pneumoniae, ATCC43816, KP-2029, Urine/ESBL, OXA-48), 8 µg/mL (≈ 13.7 µM); in series [2] (Klebsiella pneumoniae, ATCC43816, KP-2030, Trachea/ESBL, OXA-48), 16 µg/mL (≈ 27.3 µM); in series [2] (Klebsiella pneumoniae, ATCC43816, KP-2031, Skin/ESBL, OXA-48), 8 µg/mL (≈ 13.7 µM); in series [2] (Klebsiella pneumoniae, ATCC43816, KP-2032, Urine/ESBL, OXA-48), 4 µg/mL (≈ 6.83 µM). Further, the MIC90 came out at 2 µg/mL (≈ 3.42 µM) in series [2] (Klebsiella pneumoniae, ATCC43816, KP-2033, Urine/OXA-A8); 16 µg/mL (≈ 27.3 µM) in series [2] (Klebsiella pneumoniae, ATCC43816, KP-2034, Urine/ESBL, OXA-48); 8 µg/mL (≈ 13.7 µM) in series [2] (Klebsiella pneumoniae, ATCC43816, KP-2035, Urine/ESBL, OXA-48); 8 µg/mL (≈ 13.7 µM) in series [2] (Klebsiella pneumoniae, ATCC43816, KP-2036, Urine/ESBL); 4 µg/mL (≈ 6.83 µM) in series [2] (Klebsiella pneumoniae, ATCC43816, KP-2037, Urine/ESBL, OXA-48).
Consider `N=C(NCCN)NC1C(O)[C@@H](CO)OC(OC2C(F)[C@H](O[C@H]3OC(CN)[C@@H](O)CC3N)C(N)C[C@H]2NC(=O)[C@@H](O)CCN)[C@@H]1O` (stereo partly shown) [ABX5020, Tobra-AHB-F-Gua-2-amino-ethyl], for which the “MIC90” value in series [2] (K. pneumoniae ATCC43816 strain) was determined as 1 µg/mL (≈ 1.53 µM); in series [2] (setting [3]) it was 4 µg/mL (≈ 6.1 µM); in series [2] (setting [4]), 4 µg/mL (≈ 6.1 µM); in series [2] (setting [5]), 2 µg/mL (≈ 3.05 µM); in series [2] (setting [6]), 8 µg/mL (≈ 12.2 µM); in series [2] (setting [7]), 1 µg/mL (≈ 1.53 µM). The results for the MIC90 in series [2] (setting [8]) and in series [2] (setting [9]) were 4 µg/mL (≈ 6.1 µM) and 2 µg/mL (≈ 3.05 µM), respectively.
